Experimental data published in patent US7996156B2, “Methods for predicting properties of molecules” (priority 2002, dated 2011).
Where two headings read alike, the source gives them in different places.

Columns and labels:
[1] = target: T1, aryl hydrocarbon receptor (AhR) (Rattus norvegicus, UniProt P41738); conditions: cited from earlier work; for Experimental Log EC50: rodent hepatic cytosol
T1 construct: rodent hepatic cytosol as a source of the AhR; from tissue; host or cells: rodent hepatic cytosol
T1 sequence (P41738 10-853): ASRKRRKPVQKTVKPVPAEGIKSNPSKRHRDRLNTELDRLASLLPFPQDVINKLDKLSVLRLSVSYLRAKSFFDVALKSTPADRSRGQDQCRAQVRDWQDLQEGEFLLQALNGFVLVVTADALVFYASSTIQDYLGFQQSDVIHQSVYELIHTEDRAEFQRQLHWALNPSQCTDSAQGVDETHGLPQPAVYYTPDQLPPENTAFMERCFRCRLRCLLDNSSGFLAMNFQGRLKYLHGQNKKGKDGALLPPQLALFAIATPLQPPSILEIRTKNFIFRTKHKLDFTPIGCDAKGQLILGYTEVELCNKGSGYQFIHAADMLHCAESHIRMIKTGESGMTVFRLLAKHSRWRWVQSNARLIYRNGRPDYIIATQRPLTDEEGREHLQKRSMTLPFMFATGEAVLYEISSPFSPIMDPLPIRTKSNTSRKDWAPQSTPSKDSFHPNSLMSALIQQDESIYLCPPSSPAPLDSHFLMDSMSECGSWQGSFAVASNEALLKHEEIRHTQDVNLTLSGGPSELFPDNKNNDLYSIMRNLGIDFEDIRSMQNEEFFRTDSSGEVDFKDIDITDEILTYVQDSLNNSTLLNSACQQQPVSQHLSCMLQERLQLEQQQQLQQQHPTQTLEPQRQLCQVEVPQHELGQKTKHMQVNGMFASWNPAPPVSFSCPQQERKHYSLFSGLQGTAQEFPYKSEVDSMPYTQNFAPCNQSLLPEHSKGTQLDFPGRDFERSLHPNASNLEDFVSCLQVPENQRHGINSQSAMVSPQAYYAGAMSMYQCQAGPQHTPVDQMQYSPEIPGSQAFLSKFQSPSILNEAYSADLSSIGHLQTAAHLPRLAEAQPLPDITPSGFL

estrogen receptor = target: T2, estrogen receptor (Rattus norvegicus, UniProt P06211); experiment: Competitive ER binding assay with [3H]E2 in rat uterine cytosol (NCTR)
T2 construct: in rat uterine cytosol, which was obtained from ovariectomized uteri of Sprague-Dawley rats; from tissue; host or cells: uterine cytosol of ovariectomized Sprague-Dawley rats
T2 sequence (P06211 1-600): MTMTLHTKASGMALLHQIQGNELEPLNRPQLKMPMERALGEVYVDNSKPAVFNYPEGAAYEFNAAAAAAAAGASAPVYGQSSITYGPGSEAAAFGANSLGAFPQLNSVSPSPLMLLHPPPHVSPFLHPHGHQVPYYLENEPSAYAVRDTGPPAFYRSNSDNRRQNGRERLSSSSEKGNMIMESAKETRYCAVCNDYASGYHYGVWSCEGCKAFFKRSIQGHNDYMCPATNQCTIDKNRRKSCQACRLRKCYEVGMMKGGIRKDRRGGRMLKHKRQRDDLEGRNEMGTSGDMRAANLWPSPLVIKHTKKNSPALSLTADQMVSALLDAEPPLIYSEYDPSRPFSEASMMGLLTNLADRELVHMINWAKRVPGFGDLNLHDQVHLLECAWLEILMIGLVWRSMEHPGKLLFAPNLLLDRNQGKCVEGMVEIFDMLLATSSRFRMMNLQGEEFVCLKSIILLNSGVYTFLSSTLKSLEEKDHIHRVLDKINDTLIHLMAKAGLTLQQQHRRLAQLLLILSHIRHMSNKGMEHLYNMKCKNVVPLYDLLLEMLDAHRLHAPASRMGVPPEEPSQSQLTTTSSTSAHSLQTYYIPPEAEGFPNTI
Description: The log relative binding activity (RBA) data for these 130 structurally diverse compounds was used to train the CoSCoSA models. The data was produced at NCTR using a competitive ER binding assay with radiolabeled estradiol ([^3H]E2) in rat uterine cytosol, which was obtained from ovariectomized uteri of Sprague-Dawley rats. […] For each of the 130 compounds, the ^13C 2D ^13C—^13C COSY NMR experiment was simulated using the ACD Labs CNMR version 5.0 2D predictor software. The COSY NMR spectra could be saved as two tables per compound.

[2] = log scale, competitive binding, [3H]-2,3,7,8-tetrachlorodioxin, previously reported training data
[3] = previously reported competitive in vitro AhR binding, [3H]-2,3,7,8-tetrachlorodioxin radioligand, values are log EC50
[4] = relative binding affinity vs 17-β-estradiol (RBA 100), rat uterine cytosol, 130 compound training set

## Clc1cc2oc3c(Cl)c(Cl)cc(Cl)c3c2cc1Cl [1,3,4,7,8-pentaCl-dibenzofuran]
[1]; [2]
  Experimental Log EC50: −7.70
[1]; [3]
  Experimental Log EC50: −7.70

## Clc1ccc(-c2ccc(Cl)c(Cl)c2Cl)cc1 [2,3,4,4′-tetraCl-biphenyl]
[1]; [2]
  Experimental Log EC50: −5.55
[1]; [3]
  Experimental Log EC50: −5.55

## Clc1cc2c(oc3c(Cl)cc(Cl)c(Cl)c32)c(Cl)c1Cl [1,2,4,6,7,8-hexaCl-dibenzofuran]
[1]; [2]
  Experimental Log EC50: −6.08
[1]; [3]
  Experimental Log EC50: −6.08

## Clc1cc2c(cc1Cl)Oc1c(ccc(Cl)c1Cl)O2 [2,3,6,7-tetraCl-dibenzodioxin]
[1]; [2]
  Experimental Log EC50: −7.79
[1]; [3]
  Experimental Log EC50: −7.79

## Clc1cc(Cl)c2oc3cc(Cl)c(Cl)cc3c2c1 [2,3,6,8-tetraCldibenzofuran]
[1]; [2]
  Experimental Log EC50: −7.66
[1]; [3]
  Experimental Log EC50: −7.66

## Clc1c(Cl)c(Cl)c2c(c1Cl)Oc1ccccc1O2 [1,2,3,4-tetraCldibenzodioxin]
[1]; [2]
  Experimental Log EC50: −6.88
[1]; [3]
  Experimental Log EC50: −6.88

## Clc1cc(Cl)c2c(c1)Oc1cc(Cl)c(Cl)cc1O2 [1,3,7,8-tetraCl-dibenzodioxin]
[1]; [2]
  Experimental Log EC50: −7.10
[1]; [3]
  Experimental Log EC50: −7.10

## Clc1cc2oc3c(Cl)c(Cl)c(Cl)cc3c2cc1Cl [2,3,4,7,8-pentaCl-dibenzofuran]
[1]; [2]
  Experimental Log EC50: −8.82
[1]; [3]
  Experimental Log EC50: −8.82

## Clc1ccc(-c2ccc(Cl)c(Cl)c2Cl)cc1Cl [2,3,3′,4,4′-pentaCl-biphenyl]
[1]; [2]
  Experimental Log EC50: −6.15
[1]; [3]
  Experimental Log EC50: −6.15

## Clc1cc(-c2ccccc2)c(Cl)c(Cl)c1Cl [2,3,4,5-tetraCl-biphenyl]
[1]; [2]
  Experimental Log EC50: −4.85
[1]; [3]
  Experimental Log EC50: −4.85

## Clc1ccc(-c2cc(Cl)c(Cl)c(Cl)c2)cc1Cl [3,3′,4,4′,5-pentaCl-biphenyl]
[1]; [2]
  Experimental Log EC50: −7.92
[1]; [3]
  Experimental Log EC50: −7.92

## Clc1cc(Cl)c2c(c1)oc1cc(Cl)c(Cl)c(Cl)c12 [1,2,3,7,9-pentaCl-dibenzofuran]
[1]; [2]
  Experimental Log EC50: −7.40
[1]; [3]
  Experimental Log EC50: −7.40

## Clc1cc2c(cc1Cl)Oc1c(Cl)c(Cl)cc(Cl)c1O2 [1,2,4,7,8-pentaCl-dibenzodioxin]
[1]; [2]
  Experimental Log EC50: −6.96
[1]; [3]
  Experimental Log EC50: −6.96

## Clc1cc2c(oc3c(Cl)cccc32)c(Cl)c1Cl [2,3,4,6-tetraCl-dibenzofuran]
[1]; [2]
  Experimental Log EC50: −7.46
[1]; [3]
  Experimental Log EC50: −7.46

## Clc1cc2c(cc1Cl)Oc1c(cc(Cl)c(Cl)c1Cl)O2 [1,2,3,7,8-pentaCl-dibenzodioxin]
[1]; [2]
  Experimental Log EC50: −8.10
[1]; [3]
  Experimental Log EC50: −8.10

## Clc1cc2c(oc3cc(Cl)c(Cl)c(Cl)c32)c(Cl)c1Cl [1,2,3,6,7,8-hexaCl-dibenzofuran]
[1]; [2]
  Experimental Log EC50: −7.57
[1]; [3]
  Experimental Log EC50: −7.57

## Clc1ccc2c(c1)Oc1c(Cl)c(Cl)c(Cl)c(Cl)c1O2 [1,2,3,4,7-pentaCl-dibenzodioxin]
[1]; [2]
  Experimental Log EC50: −6.19
[1]; [3]
  Experimental Log EC50: −6.19

## Clc1c(Cl)c(Cl)c2c(c1Cl)Oc1c(Cl)c(Cl)c(Cl)c(Cl)c1O2 [octaCl-dibenzodioxin]
[1]; [2]
  Experimental Log EC50: −6.00
[1]; [3]
  Experimental Log EC50: −6.00

## Clc1cccc2c1Oc1ccccc1O2 [1-Cl-dibenzodioxin]
[1]; [2]
  Experimental Log EC50: −5.00
[1]; [3]
  Experimental Log EC50: −5.00

## Clc1cc2c(oc3c(Cl)c(Cl)c(Cl)cc32)c(Cl)c1Cl [2,3,4,6,7,8-hexaCl-dibenzofuran]
[1]; [2]
  Experimental Log EC50: −8.33
[1]; [3]
  Experimental Log EC50: −8.33

## Clc1cc(Cl)c2c(c1Cl)Oc1ccccc1O2 [1,2,4-triCl-dibenzodioxin]
[1]; [2]
  Experimental Log EC50: −5.88
[1]; [3]
  Experimental Log EC50: −5.88

## Clc1cc2oc3cc(Cl)c(Cl)cc3c2cc1Cl [2,3,7,8-tetraCl-dibenzofuran]
[1]
  binding to the AhR (in words): strong binder
[1]; [2]
  Experimental Log EC50: −8.60
[1]; [3]
  Experimental Log EC50: −8.60

## Clc1ccc(-c2ccc(Cl)c(Cl)c2Cl)cc1Cl [2′,3′4,4′,5-pentaCl-biphenyl]
[1]; [2]
  Experimental Log EC50: −5.85
[1]; [3]
  Experimental Log EC50: −5.85

## Clc1ccc(-c2ccc(Cl)c(Cl)c2)cc1Cl [3,3′,4,4′-tetraCl-biphenyl]
[1]; [2]
  Experimental Log EC50: −7.37
[1]; [3]
  Experimental Log EC50: −7.37

## Clc1cc(Cl)c(-c2cc(Cl)c(Cl)c(Cl)c2)cc1Cl [2,3′,4,4′,5,5′-hexaCl-biphenyl]
[1]; [2]
  Experimental Log EC50: −5.80
[1]; [3]
  Experimental Log EC50: −5.80

## Clc1ccc(-c2cc(Cl)c(Cl)c(Cl)c2Cl)cc1Cl [2,3,3′,4,4′,5-hexaCl-biphenyl]
[1]; [2]
  Experimental Log EC50: −6.30
[1]; [3]
  Experimental Log EC50: −6.30

## Clc1cc2oc3cc(Cl)c(Cl)c(Cl)c3c2cc1Cl [1,2,3,7,8-pentaCl-dibenzofuran]
[1]; [2]
  Experimental Log EC50: −8.12
[1]; [3]
  Experimental Log EC50: −8.12

## CCC(C)(C)c1ccc(O)cc1 [4-tert-amylphenol]
Estrogen receptor
  Exp. Log(RBA): −3.26

## Oc1ccc(C=Cc2ccc(O)cc2)cc1 [4,4′-dihroxystilbene]
Estrogen receptor; [4]
  Exp. Log(RBA): −0.55

## CC(Cc1ccc(O)c(O)c1)C(C)Cc1ccc(O)c(O)c1 (stereo not drawn) [nordihydroguariareticacid]
Estrogen receptor; [4]
  Exp. Log(RBA): −1.51

## COc1ccc(-c2coc3cc(O)cc(O)c3c2=O)cc1 [biochanin A]
Estrogen receptor; [4]
  Exp. Log(RBA): −2.37

## O=C1C=CC(=C(c2ccc(O)cc2)c2ccc(O)cc2)C=C1 [aurin]
Estrogen receptor
  Exp. Log(RBA): −1.5

## COc1cc(C(=C(Cl)Cl)c2ccc(O)cc2)ccc1O [dihydroxymethoxychlorolefin]
Estrogen receptor
  Exp. Log(RBA): 0.42

## Clc1ccc2oc3c(Cl)cc(Cl)c(Cl)c3c2c1 [1,2,4,8-tetraCl-dibenzofuran]
[1]; [2]
  Experimental Log EC50: −6.00
[1]; [3]
  Experimental Log EC50: −6.00

## CCCCN(C)C(=O)CCCCCCCCCC[C@@H]1Cc2cc(O)ccc2[C@H]2CC[C@]3(C)[C@@H](O)CC[C@H]3[C@H]12 [ICI164384]
Estrogen receptor; [4]
  Exp. Log(RBA): 1.16

## Oc1ccc(Cl)cc1Cc1cc(Cl)ccc1O [2,2′-methylenebis(4-chlorophenol)]
Estrogen receptor
  Exp. Log(RBA): −2.45

## O=C(O)c1ccccc1C(c1ccc(O)cc1)c1ccc(O)cc1 [phenolphthalin]
Estrogen receptor; [4]
  Exp. Log(RBA): −3.67

## Clc1ccc(-c2cc(Cl)c(Cl)cc2Cl)cc1Cl [2,3′,4,4′,5-pentaCl-biphenyl]
[1]; [2]
  Experimental Log EC50: −6.04
[1]; [3]
  Experimental Log EC50: −6.04

## Clc1ccc(C(c2ccccc2Cl)C(Cl)(Cl)Cl)cc1 (stereo not drawn) [o,p′,-DDT]
Estrogen receptor; [4]
  Exp. Log(RBA): −2.85

## Oc1ccc(OCc2ccccc2)cc1 [4-benzyloxyphenol]
Estrogen receptor
  Exp. Log(RBA): −3.44

## O=c1cc(-c2ccccc2)oc2ccc(O)cc12 [6-hydroxyflavone]
Estrogen receptor; [4]
  Exp. Log(RBA): −3.41

## O=c1cc(-c2ccccc2)oc2cc(O)c(O)c(O)c12 [baicalein]
Estrogen receptor
  Exp. Log(RBA): −3.35

## Oc1cccc(-c2ccccc2)c1 [3-phenylphenol]
Estrogen receptor
  Exp. Log(RBA): −3.44

## C[C@]12CC[C@@H]3c4ccccc4CC[C@H]3[C@@H]1CCC2=O [3-deoxyestrone]
Estrogen receptor; [4]
  Exp. Log(RBA): −2.2

## O=C(/C=C/c1ccc(O)cc1)c1ccc(O)cc1O [2′,4,4′-trihydroxychalcone]
Estrogen receptor
  Exp. Log(RBA): −1.26

## CC(CCC(=O)O)(c1ccc(O)cc1)c1ccc(O)cc1 [diphenolic acid]
Estrogen receptor
  Exp. Log(RBA): −3.13

## CC[C@H](c1ccc(O)cc1)[C@@H](CC)c1ccc(O)cc1 [meso-hexestrol]
Estrogen receptor
  Exp. Log(RBA): 2.48

## Oc1ccc([C@H]2COc3cc(O)ccc3C2)cc1 [equol]
Estrogen receptor
  Exp. Log(RBA): −0.82
